Assay results reported in patent publication US8026219B2, “Antimicrobial linear peptides” (Universitat de Girona, priority 2006, dated 2011).
Residues, ends and D or L forms follow the SMILES beside them. No end group written: not given here. *: point of attachment. Tos = Cc1ccc(S(=O)(=O)*)cc1; Bz = O=C(c1ccccc1)*

How the values were obtained:
[1] = target: Proteinase K (Parengyodontium album, UniProt P06873); experiment: in vitro; details: Proteinase K (1 μg/ml), pH 7.6
Protocol: The degradation is expressed as the percentage of peptide degraded after a determined time interval calculated from the decrease in the area of the peak of the native peptide by HPLC.
The stability of the peptides of the invention to degradation by proteases is determined by a peptide digestion test by Proteinase K (Sigma-Aldrich Corporation, Madrid, Spain).
A solution of 50 μg/ml of the peptide and 1 μg/ml of Proteinase K in 100 mM TRIS buffer at pH 7.6 was used, at ambient temperature.
The progress of the peptide excision was determined chromatographically at times between 5 and 45 minutes. To do this a reverse phase C18 column was used (Kromasil, 4.6×40 mm; 3.5 μm particle size), and linear gradients from 0.98:0.02 to 0:1 during 7 min performing the detection by absorbance in ultraviolet light at 220 nm.

[2] = test system: Pseudomonas syringae EPS94; experiment: Minimum inhibitory concentration (MIC), microbial growth by optical density; assay type: cell-based; details: 48 h incubation at 25° C., TSB medium
Protocol: (§1) Each experiment was performed twice.

[3] = test system: Erwinia amylovora PMV6076; experiment: as above; assay type: cell-based; details: 48 h incubation at 25° C., TSB medium
Protocol: as §1

[4] = test system: erythrocytes from fresh human blood; details: 5% erythrocytes, 1 h at 37° C., relative to 200 μM melittin; for % Haemolysis 50 μM: 50 μM peptide; for % Haemolysis 150 μM: 150 μM peptide; for % Haemolysis 250 μM: 250 μM peptide
Protocol: A description of the methodology used to determine the haemolytic activity is found in Oren et al, Biochemistry, 2000, 39, 6103-6114, and in Raguse et al., J. Am. Chem. Soc., 2002, 124, 12774-12785.
The haemolytic activity of the peptides of the invention was evaluated by determining the release of haemoglobin which is produced on placing in contact a solution of the peptides with a suspension of erythrocytes 5% by volume, from fresh human blood.
The blood was collected aseptically using a Vactainer® K2E system (Belliver, Great Britain) with EDTA and it was stored at 4° C. for a period lower than 2 hours.
The blood was centrifuged at 6000 g for 5 minutes to separate the erythrocytes. There were washed three times with TRIS buffer (10 mM TRIS, 150 mM NaCl, pH 7.2) and they were resuspended in TRIS buffer until obtaining a suspension which contained 10% by volume of erythrocytes.
The peptides were solubilized in TRIS buffer until a final concentration of 100, 300 and 500 μM
The replicas were used for each peptide and concentration.
65 μl of 10% erythrocyte suspension was mixed with 65 μl of the peptide solution in each well of a 96-well plate (Micro-Amp®, Applied Biosystems, USA) (5% by volume of erythrocytes) and the mixture was incubated for 1 h at 37° C. under stirring. In this way, the erythrocyte suspensions were subjected to peptide concentrations of 50, 150 and 250 μM.
Next, the plates were centrifuged at 3500 g during 10 minutes and aliquots were transferred of 80 μl of supernatant to microplates with 100 wells (Bioscreen), which were diluted with 80 μl of milli-Q water.
The degree of haemolysis was determined from the absorbance at 540 nm with a Bioscreen plate reader.
The complete positive haemolysis control was determined in a TRIS buffer solution which contained 200 μM melittin (Sigma-Aldrich, Spain)
The percentage of haemolysis (H) was determined using the following equation: H=100×[Op−Ob)/(Om−Ob)]
Where OP as the optical density measured for a determined peptide concentration, Ob was the optical density of the buffer solution, and Om was the optical density for the positive control with melittin.

[5] = test system: Xanthomonas vesicatori 2133-2; experiment: Minimum inhibitory concentration (MIC), microbial growth by optical density; details: 48 h incubation at 25° C., TSB medium
Protocol: All the bacteria were stored at a temperature of −80° C. in Luria-Bertani (LB) medium supplemented with 20% glycerine in volume/volume.
In all cases they were resuspended in sterile water to obtain a suspension adjusted to an absorbance of 0.2 to 60 nm, which approximately corresponds to 10^8 colony forming units.
To determine the minimum inhibitory concentration (MIC), the peptides were solubilized in milli-Q sterile water until a final concentration of 1000 μM and they were filtered through a 0.22 μm pore size filter.
Dilutions of the peptides of the invention were made to obtained solutions at the concentrations of 750, 500, 250, 200, 150, 125, 100, 75, 50 and 25 μM.
20 μl of each dilution were mixed with 20 μl of the suspension of the corresponding bacterial indicator, and 160 μl of the TSB (Trypticase Soy Broth) liquid medium until a total volume of 200 μl in each well of a microplate.
Two replicas were carried out for each strain, concentration and peptide under study.
The positive controls contained water instead of peptide, and the negative controls contained the peptides without the bacterial suspension.
The microbial growth was determined automatically by optical density at 600 nm using the Microbiology Analyser Bioscreen C (Labsystems)
The microplates were incubated at 25° C. for 48 hours with stirring for 20 seconds before measuring the absorbance every hour. Each experiment was performed twice.

Proteinase K, sequence (P06873 106-384): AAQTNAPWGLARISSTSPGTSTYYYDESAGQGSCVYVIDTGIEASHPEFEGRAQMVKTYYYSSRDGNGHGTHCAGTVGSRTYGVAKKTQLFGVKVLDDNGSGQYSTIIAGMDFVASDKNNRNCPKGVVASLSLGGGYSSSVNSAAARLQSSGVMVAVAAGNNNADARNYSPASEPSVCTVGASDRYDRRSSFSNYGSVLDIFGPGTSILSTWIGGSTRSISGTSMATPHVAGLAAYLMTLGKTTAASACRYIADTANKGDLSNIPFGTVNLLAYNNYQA

Compound	metabolised at 0.75 h, 50 μg/ml [1]	range of concentrations including the MIC, P. syringae [2]	range of concentrations including the MIC, E. amylovora [3]	% Haemolysis 50 μM [4]	% Haemolysis 150 μM [4]	% Haemolysis 250 μM [4]	range of concentrations including the MIC, X. vesicatoria [5]
CC[C@H](C)[C@H](NC(=O)[C@H](CCCCN)NC(=O)[C@H](CCCCN)NC(=O)[C@H](Cc1ccccc1)NC(=O)[C@H](CC(C)C)NC(=O)[C@H](CCCCN)NC(=O)[C@H](Cc1c[nH]c2ccccc12)NS(=O)(=O)c1ccc(C)cc1)C(=O)N[C@@H](CC(C)C)C(=O)N[C@@H](CCCCN)C(=O)N[C@H](C(=O)N[C@@H](CC(C)C)C(N)=O)C(C)C [BP009] (Tos-WKLFKKILKVL-NH2)	100%						
CC[C@H](C)[C@H](NC(=O)[C@H](CCCCN)NC(=O)[C@H](CCCCN)NC(=O)[C@H](Cc1ccccc1)NC(=O)[C@H](CC(C)C)NC(=O)[C@H](CCCCN)NC(=O)[C@@H](N)Cc1ccc(O)cc1)C(=O)N[C@@H](CC(C)C)C(=O)N[C@@H](CCCCN)C(=O)N[C@@H](Cc1ccc(O)cc1)C(=O)N[C@@H](CC(C)C)C(N)=O [BP095]		5 to 7.5 µM	5 to 7.5 µM	7%	50%	76%	2.5 to 5 µM
CC[C@H](C)[C@H](NC(=O)[C@H](CCCCN)NC(=O)[C@H](CCCCN)NC(=O)[C@H](Cc1ccccc1)NC(=O)[C@H](CC(C)C)NC(=O)[C@H](CCCCN)NC(=O)[C@H](Cc1ccc(O)cc1)NS(=O)(=O)c1ccc(C)cc1)C(=O)N[C@@H](CC(C)C)C(=O)N[C@@H](CCCCN)C(=O)N[C@@H](Cc1ccc(O)cc1)C(=O)N[C@@H](CC(C)C)C(N)=O [BP097]		>7.5 µM	>7.5 µM	83%	81%	88%	<2.5 µM
CC[C@H](C)[C@H](NC(=O)[C@H](CCCCN)NC(=O)[C@H](CCCCN)NC(=O)[C@H](Cc1ccccc1)NC(=O)[C@H](CC(C)C)NC(=O)[C@H](CCCCN)NC(=O)[C@H](CCCCN)NC(C)=O)C(=O)N[C@@H](CC(C)C)C(=O)N[C@@H](CCCCN)C(=O)N[C@@H](Cc1ccc(O)cc1)C(=O)N[C@@H](CC(C)C)C(N)=O [BP101]		5 to 7.5 µM	>7.5 µM	4%	31%	62%	2.5 µM
CC[C@H](C)[C@H](NC(=O)[C@H](CCCCN)NC(=O)[C@H](CCCCN)NC(=O)[C@H](Cc1ccccc1)NC(=O)[C@H](CC(C)C)NC(=O)[C@H](CCCCN)NC(=O)[C@H](CCCCN)NS(=O)(=O)c1ccc(C)cc1)C(=O)N[C@@H](CC(C)C)C(=O)N[C@@H](CCCCN)C(=O)N[C@@H](Cc1ccc(O)cc1)C(=O)N[C@@H](CC(C)C)C(N)=O [BP102]		2.5 to 5 µM	5 to 7.5 µM	39%	79%	80%	<2.5 µM
CC[C@H](C)[C@H](NC(=O)[C@H](CCCCN)NC(=O)[C@H](CCCCN)NC(=O)[C@H](Cc1ccccc1)NC(=O)[C@H](CC(C)C)NC(=O)[C@H](CCCCN)NC(=O)[C@H](CCCCN)NC(=O)c1ccccc1)C(=O)N[C@@H](CC(C)C)C(=O)N[C@@H](CCCCN)C(=O)N[C@@H](Cc1ccc(O)cc1)C(=O)N[C@@H](CC(C)C)C(N)=O [BP103]		5 to 7.5 µM	7.5 µM	42%	83%	80%	<2.5 µM
CC[C@H](C)[C@H](NC(=O)[C@H](CCCCN)NC(=O)[C@H](CCCCN)NC(=O)[C@H](Cc1ccccc1)NC(=O)[C@H](CC(C)C)NC(=O)[C@H](CCCCN)NC(=O)[C@@H](N)CC(C)C)C(=O)N[C@@H](CC(C)C)C(=O)N[C@@H](CCCCN)C(=O)N[C@@H](Cc1ccc(O)cc1)C(=O)N[C@@H](CC(C)C)C(N)=O [BP105]		5 to 7.5 µM	5 µM	14%	91%	90%	2.5 to 5 µM
CC[C@H](C)[C@H](NC(=O)[C@H](CCCCN)NC(=O)[C@H](CCCCN)NC(=O)[C@H](Cc1ccccc1)NC(=O)[C@H](CC(C)C)NC(=O)[C@H](CCCCN)NC(=O)[C@H](Cc1ccc(O)cc1)NS(=O)(=O)c1ccc(C)cc1)C(=O)N[C@@H](CC(C)C)C(=O)N[C@@H](CCCCN)C(=O)N[C@@H](CCCCN)C(=O)N[C@@H](CC(C)C)C(N)=O [BP121] (Tos-YKLFKKILKKL-NH2)		2.5 to 5 µM	>7.5 µM	22%	81%	86%	2.5 to 5 µM
CC[C@H](C)[C@H](NC(=O)[C@H](CCCCN)NC(=O)[C@H](CCCCN)NC(=O)[C@H](Cc1ccccc1)NC(=O)[C@H](CC(C)C)NC(=O)[C@H](CCCCN)NC(=O)[C@H](Cc1ccc(O)cc1)NC(=O)c1ccccc1)C(=O)N[C@@H](CC(C)C)C(=O)N[C@@H](CCCCN)C(=O)N[C@@H](CCCCN)C(=O)N[C@@H](CC(C)C)C(N)=O [BP122] (Bz-YKLFKKILKKL-NH2)		5 to 7.5 µM	>7.5 µM	32%	78%	96%	2.5 to 5 µM
Ac-WKLFKKILKVL-NH2 [BP008]	100%						
Ac-WKLFKKILKWL-NH2 [BP038]		>7.5 µM	>7.5 µM	80%	86%	80%	<2.5 µM
FKLFKKILKFL-NH2 [BP066]		5 to 7.5 µM	2.5 to 5 µM	9%	63%	89%	2.5 to 5 µM
LKLFKKILKFL-NH2 [BP081]		2.5 to 5 µM	2.5 to 5 µM	10%	65%	88%	<2.5 µM
WKLFKKILKWL-NH2 [BP018]		5 to 7.5 µM	5 to 7.5 µM	78%	68%	74%	2.5 µM
YKLFKKILKWL-NH2 [BP047]		5 to 7.5 µM	5 to 7.5 µM	81%	76%	82%	2.5 to 5 µM
